Measured values from BindingDB's records for doi:10.1021/jm960395q (Shionogi, 1996).

Key:
[1] = target: T1, Phospholipase A2 (Homo sapiens, UniProt P04054); assay: Inhibition of recombinant human secretory phospholipase A2 (sPLA2), chromogenic screening assay.
[2] = Inhibitory activity against recombinant human secretory phospholipase A2 (s-PLA2) by phosphatidylcholine/deoxycholate assay (PC/DOC).
[3] = target: T1, Phospholipase A2; assay: Inhibition of recombinant human secretory Phospholipase A2 (s-PLA2)

T1 sequence (P04054 whole entry): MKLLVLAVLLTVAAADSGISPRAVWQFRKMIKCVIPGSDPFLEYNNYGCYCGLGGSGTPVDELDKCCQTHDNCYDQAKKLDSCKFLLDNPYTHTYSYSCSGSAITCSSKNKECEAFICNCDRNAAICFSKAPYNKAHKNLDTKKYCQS

| SMILES | IC50 [1] [µM] | IC50 [2] [µM] | IC50 [3] [µM] |
| --- | --- | --- | --- |
| CCC1C(CC(N)=O)=C2C(OCC(=O)O)=CC=CN2/C1=C\c1ccc2ccccc2c1 (stereo unspecified) [{1-Carbamoylmethyl-2-ethyl-3-[1-naphthalen-2-yl-meth-(Z)-ylidene]-2,3-dihydro-indolizin-8-yloxy}-acetic acid] |  |  | 0.17 |
| COC(=O)CCCOC1=CC=CN2C1=C(CC(N)=O)C(C)C2Cc1ccccc1 (stereo unspecified) [4-(3-Benzyl-1-carbamoylmethyl-2-methyl-2,3-dihydro-indolizin-8-yloxy)-butyric acid methyl ester] |  |  | 15 |
| CCCCC[C@H]1CCCC(Cc2c(CC)c(C(=O)C(N)=O)c3c(OCC(=O)O)cccn23)C1 (stereo partly drawn) [[1-Aminooxalyl-2-ethyl-3-((S)-3-pentyl-cyclohexylmethyl)-indolizin-8-yloxy]-acetic acid] | 0.025 | 0.02 |  |
| CC1C(C(N)=O)=C2C(OCC(=O)O)=CC=CN2/C1=C\c1ccccc1 (stereo unspecified) [{1-Carbamoyl-2-methyl-3-[1-phenyl-meth-(Z)-ylidene]-2,3-dihydro-indolizin-8-yloxy}-acetic acid] |  |  | 0.42 |
| NC(=O)C(=O)c1c(C2CC2)c(Cc2ccccc2)n2cccc(OCC(=O)O)c12 [(1-Aminooxalyl-3-benzyl-2-cyclopropyl-indolizin-8-yloxy)-acetic acid] | 0.046 | 0.049 |  |
| CCC1C(CC(N)=O)=C2C(OCC(=O)O)=CC=CN2/C1=C\c1cccc(Cl)c1 (stereo unspecified) [{1-Carbamoylmethyl-3-[1-(3-chloro-phenyl)-meth-(Z)-ylidene]-2-ethyl-2,3-dihydro-indolizin-8-yloxy}-acetic acid] |  |  | 0.2 |
| COC(=O)COc1cccn2c(CC3CCCCC3)c(C3CC3)c(C(=O)C(N)=O)c12 [(1-Aminooxalyl-3-cyclohexylmethyl-2-cyclopropyl-indolizin-8-yloxy)-acetic acid methyl ester] | 0.043 | 0.16 |  |
| CCc1c(C(N)=O)c2c(OCC(=O)O)cccn2c1Cc1cccc2ccccc12 [(1-Carbamoyl-2-ethyl-3-naphthalen-1-ylmethyl-indolizin-8-yloxy)-acetic acid] | 0.03 | 0.135 |  |
| CCC1C(CC(N)=O)=C2C(OCC(=O)O)=CC=CN2/C1=C\c1cccc(Cl)c1Cl (stereo unspecified) [{1-Carbamoylmethyl-3-[1-(2,3-dichloro-phenyl)-meth-(Z)-ylidene]-2-ethyl-2,3-dihydro-indolizin-8-yloxy}-acetic acid] |  |  | 0.067 |
| CCc1c(C(=O)C(N)=O)c2c(OCC(=O)O)cccn2c1CC1CCCCC1 [(1-Aminooxalyl-3-cyclohexylmethyl-2-ethyl-indolizin-8-yloxy)-acetic acid] | 0.021 | 0.03 |  |
| COC(=O)COc1cccn2c(Cc3ccccc3-c3ccccc3)c(C(C)C)c(C(=O)C(N)=O)c12 [(1-Aminooxalyl-3-biphenyl-2-ylmethyl-2-isopropyl-indolizin-8-yloxy)-acetic acid methyl ester] | 0.035 |  |  |
| CCc1c(C(=O)C(N)=O)c2c(OCC(=O)OC)cccn2c1C/C=C/c1ccccc1 [[1-Aminooxalyl-2-ethyl-3-((E)-3-phenyl-allyl)-indolizin-8-yloxy]-acetic acid methyl ester] | 0.038 | 0.08 |  |
| CCc1c(CC(N)=O)c2c(OCC(=O)O)cccn2c1Cc1ccccc1-c1ccccc1 [(3-Biphenyl-2-ylmethyl-1-carbamoylmethyl-2-ethyl-indolizin-8-yloxy)-acetic acid] | 0.014 | 0.014 |  |
| Cc1c(C(=O)C(N)=O)c2c(OCC(=O)O)cccn2c1CC1CCCC1 [(1-Aminooxalyl-3-cyclopentylmethyl-2-methyl-indolizin-8-yloxy)-acetic acid] | 0.014 | 0.022 |  |
| CCc1c(C(=O)C(N)=O)c2c(OCCC(=O)O)cccn2c1Cc1ccccc1-c1ccccc1 [3-(1-Aminooxalyl-3-biphenyl-2-ylmethyl-2-ethyl-indolizin-8-yloxy)-propionic acid] | 0.044 | 0.13 |  |
| CCc1c(C(=O)C(N)=O)c2cc(OCC(=O)O)ccn2c1Cc1ccccc1-c1ccccc1 | 1.4 |  |  |
| COC(=O)COc1cccn2c(Cc3ccccc3-c3ccccc3)c(C3CCCC3)c(C(=O)C(N)=O)c12 [(1-Aminooxalyl-3-biphenyl-2-ylmethyl-2-cyclopentyl-indolizin-8-yloxy)-acetic acid methyl ester] | 0.28 |  |  |
| COc1c(C(=O)C(N)=O)c2c(OCC(=O)O)cccn2c1Cc1ccccc1-c1ccccc1 [(1-Aminooxalyl-3-biphenyl-2-ylmethyl-2-methoxy-indolizin-8-yloxy)-acetic acid] | 0.015 | 0.013 |  |
| CCc1c(C(=O)C(N)=O)c2cc(OCCC(=O)O)ccn2c1Cc1ccccc1-c1ccccc1 | 0.24 |  |  |
| CCc1c(C(=O)C(N)=O)c2c(OCC(=O)O)cccn2c1Cc1cccc(OC)c1 [[1-Aminooxalyl-2-ethyl-3-(3-methoxy-benzyl)-indolizin-8-yloxy]-acetic acid] | 0.021 | 0.03 |  |
| CCc1c(C(=O)C(N)=O)c2c(OCC(=O)OC)cccn2c1CCc1ccccc1 [(1-Aminooxalyl-2-ethyl-3-phenethyl-indolizin-8-yloxy)-acetic acid methyl ester] | 0.051 |  |  |
| CCc1c(C(=O)C(N)=O)c2c(OCC(=O)O)cccn2c1Cc1ccccc1[N+](=O)[O-] [[1-Aminooxalyl-2-ethyl-3-(2-nitro-benzyl)-indolizin-8-yloxy]-acetic acid] | 0.036 | 0.12 |  |
| COC(=O)COc1cccn2c(Cc3cccc4ccccc34)c(C3CC3)c(C(=O)C(N)=O)c12 [(1-Aminooxalyl-2-cyclopropyl-3-naphthalen-1-ylmethyl-indolizin-8-yloxy)-acetic acid methyl ester] | 0.023 | 0.2 |  |
| CCc1c(C(=O)C(N)=O)c2c(OCC(=O)O)cccn2c1CC1CCCCCC1 [(1-Aminooxalyl-3-cycloheptylmethyl-2-ethyl-indolizin-8-yloxy)-acetic acid] | 0.023 | 0.1 |  |
| CCc1c(CC(N)=O)c2c(OCC(O)CC)cccn2c1Cc1cccc(Cl)c1 (stereo unspecified) [2-[3-(3-Chloro-benzyl)-2-ethyl-8-(2-hydroxy-butoxy)-indolizin-1-yl]-acetamide] | 19 |  |  |
| CCc1c(CC(N)=O)c2c(OCC(=O)O)cccn2c1Cc1cccc(Cl)c1 [[1-Carbamoylmethyl-3-(3-chloro-benzyl)-2-ethyl-indolizin-8-yloxy]-acetic acid] | 0.015 | 0.052 |  |
| NC(=O)C(=O)c1c(C2CC2)c(CC2CCCC2)n2cccc(OCC(=O)O)c12 [(1-Aminooxalyl-3-cyclopentylmethyl-2-cyclopropyl-indolizin-8-yloxy)-acetic acid] | 0.029 | 0.088 |  |
| CCCC(C)Cc1c(CC)c(C(=O)C(N)=O)c2c(OCC(=O)O)cccn12 (stereo unspecified) [[1-Aminooxalyl-2-ethyl-3-(2-methyl-pentyl)-indolizin-8-yloxy]-acetic acid] | 0.017 | 0.078 |  |

The remaining lines, values ahead:

| IC50 [1] [µM] | IC50 [2] [µM] | IC50 [3] [µM] | SMILES |
| --- | --- | --- | --- |
| 0.009 | 0.0042 |  | CCc1c(C(=O)C(N)=O)c2c(OCC(=O)OC)cccn2c1Cc1cccc(-c2ccccc2)c1 [(1-Aminooxalyl-3-biphenyl-3-ylmethyl-2-ethyl-indolizin-8-yloxy)-acetic acid methyl ester] |
| 0.009 | 0.006 |  | NC(=O)C(=O)c1c(C2CC2)c(Cc2ccccc2-c2ccccc2)n2cccc(OCC(=O)O)c12 [(1-Aminooxalyl-3-biphenyl-2-ylmethyl-2-cyclopropyl-indolizin-8-yloxy)-acetic acid] |
| 0.008 | 0.0014 |  | COC(=O)COc1cccn2c(Cc3ccccc3-c3ccccc3)c(C)c(C(=O)C(N)=O)c12 [(1-Aminooxalyl-3-biphenyl-2-ylmethyl-2-methyl-indolizin-8-yloxy)-acetic acid methyl ester] |
| 0.008 | 0.005 |  | CCc1c(C(=O)C(N)=O)c2c(OCC(=O)O)cccn2c1Cc1ccccc1 [(1-Aminooxalyl-3-benzyl-2-ethyl-indolizin-8-yloxy)-acetic acid] |
| 0.013 | 0.026 |  | NC(=O)Cc1c(C2CC2)c(Cc2ccccc2-c2ccccc2)n2cccc(OCC(=O)O)c12 [(3-Biphenyl-2-ylmethyl-1-carbamoylmethyl-2-cyclopropyl-indolizin-8-yloxy)-acetic acid] |
| 0.008 | 0.003 |  | Cc1c(C(=O)C(N)=O)c2c(OCC(=O)O)cccn2c1Cc1ccccc1 [(1-Aminooxalyl-3-benzyl-2-methyl-indolizin-8-yloxy)-acetic acid] |
| 0.009 | 0.003 |  | CCc1c(C(=O)C(N)=O)c2c(OCC(=O)O)cccn2c1Cc1cccc(C(F)(F)F)c1 [[1-Aminooxalyl-2-ethyl-3-(3-trifluoromethyl-benzyl)-indolizin-8-yloxy]-acetic acid] |
| 0.005 | 0.024 |  | CCc1c(C(=O)C(N)=O)c2c(OCC(=O)O)cccn2c1Cc1cccc2ccccc12 [(1-Aminooxalyl-2-ethyl-3-naphthalen-1-ylmethyl-indolizin-8-yloxy)-acetic acid] |
| 0.011 | 0.013 |  | CCc1c(C(=O)C(N)=O)c2c(OCC(=O)O)cccn2c1Cc1cccs1 [(1-Aminooxalyl-2-ethyl-3-thiophen-2-ylmethyl-indolizin-8-yloxy)-acetic acid] |
| 0.006 | 0.003 |  | CCc1c(C(=O)C(N)=O)c2c(OCC(=O)O)cccn2c1Cc1cccc(Cl)c1 [[1-Aminooxalyl-3-(3-chloro-benzyl)-2-ethyl-indolizin-8-yloxy]-acetic acid] |
| 0.011 | 0.005 |  | CCCCc1ccc(Cc2c(CC)c(C(=O)C(N)=O)c3c(OCC(=O)O)cccn23)cc1 [[1-Aminooxalyl-3-(4-butyl-benzyl)-2-ethyl-indolizin-8-yloxy]-acetic acid] |
| 0.013 | 0.028 |  | CCc1c(CC(N)=O)c2c(OCC(=O)O)cccn2c1Cc1ccccc1 [(3-Benzyl-1-carbamoylmethyl-2-ethyl-indolizin-8-yloxy)-acetic acid] |
| 0.006 | 0.0013 |  | CCc1c(C(=O)C(N)=O)c2c(OCC(=O)O)cccn2c1Cc1ccccc1Cc1ccccc1 [[1-Aminooxalyl-3-(2-benzyl-benzyl)-2-ethyl-indolizin-8-yloxy]-acetic acid] |
